Measured values taken from patent US5310729A, “Interferon-related polypeptides as CR2 ligands and their use for modulating immune cell functions” (California Institute of Biological Research, priority 1990, dated 1994).
Ends that are not written are not given here.

Legend:
CR2 = target: T1, CR2 (Homo sapiens, UniProt P20023); assay: Inhibition of CR2 binding to rIFNα by competing polypeptides; conditions: competing polypeptide at 100ug/ml; rIFNα solid phase, CR2 liquid phase
T1 construct: CR2 is isolated from Raji cells (ATTC CCL 86); endogenous in cells; host or cells: Raji cells (ATCC CCL 86)
T1 sequence (P20023 21-1033): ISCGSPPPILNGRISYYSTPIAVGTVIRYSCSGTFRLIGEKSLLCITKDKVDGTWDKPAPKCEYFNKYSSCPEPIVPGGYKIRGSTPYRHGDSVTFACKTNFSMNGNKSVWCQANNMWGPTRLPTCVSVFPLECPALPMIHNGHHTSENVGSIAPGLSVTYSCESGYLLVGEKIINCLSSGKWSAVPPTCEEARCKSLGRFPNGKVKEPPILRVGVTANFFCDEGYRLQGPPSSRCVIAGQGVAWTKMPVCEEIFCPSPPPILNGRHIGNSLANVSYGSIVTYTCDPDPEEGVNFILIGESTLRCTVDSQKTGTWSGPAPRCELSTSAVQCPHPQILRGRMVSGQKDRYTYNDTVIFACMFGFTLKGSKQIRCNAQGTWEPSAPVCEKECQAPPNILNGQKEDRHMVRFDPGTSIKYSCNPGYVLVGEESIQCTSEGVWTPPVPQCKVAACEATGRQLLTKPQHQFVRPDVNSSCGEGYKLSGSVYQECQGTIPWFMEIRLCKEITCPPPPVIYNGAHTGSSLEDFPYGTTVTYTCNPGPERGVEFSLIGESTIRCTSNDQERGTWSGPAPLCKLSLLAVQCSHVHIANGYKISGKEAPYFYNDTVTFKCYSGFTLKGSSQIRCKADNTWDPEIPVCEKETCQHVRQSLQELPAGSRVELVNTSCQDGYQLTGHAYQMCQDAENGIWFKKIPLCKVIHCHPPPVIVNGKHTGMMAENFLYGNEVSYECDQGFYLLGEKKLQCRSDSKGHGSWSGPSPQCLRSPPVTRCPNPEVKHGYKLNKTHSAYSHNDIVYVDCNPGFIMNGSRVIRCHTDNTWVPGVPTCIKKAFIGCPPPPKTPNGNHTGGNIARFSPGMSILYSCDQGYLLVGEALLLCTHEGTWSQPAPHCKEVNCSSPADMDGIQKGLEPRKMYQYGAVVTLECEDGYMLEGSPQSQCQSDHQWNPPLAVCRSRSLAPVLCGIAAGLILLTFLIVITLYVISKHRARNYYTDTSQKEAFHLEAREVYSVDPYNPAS
Description: A binding reaction admixture containing rIFNα in the solid phase and CR2 in the liquid phase was prepared as described in Example 3c except that a competing CR2 ligand shown in Table 6 was also included in the admixture at a concentration of 100ug/ml. Thereafter, the binding assay was conducted as described in Example 3c to measure the amount of CR2 specifically bound to rIFNα.

rIFNα = conditions: BSA added to the binding reaction admixture in place of CR2
Description: Various amounts of affinity-purified recombinant IFNα(rIFNα) prepared in Example 3b was added to the wells of Falcon EIA plates in 50 μl of coupling buffer (100 mM NaHC03, pH 9.3) and maintained for 2 hours at 37° C. to allow the IFNα to absorb onto the walls of the wells. Subsequently, the wells were washed by 3-fold immersion in PBS containing Tween 20 at 0.05% (referred to as PBST) and then PBST was added to the wells and the wells were maintained for 1 hour at 37° C. as a saturation step. After the wash and saturation steps, twice-affinity-purified CR2, prepared as described in Example 2, was added to each well in about 50 ul of PBST to form a binding reaction admixture containing 50 nanograms (ng) the amount of CR2 per 50 ul. The admixture was maintained for 2 hours at 37° C. to allow the added CR2 in the liquid phase to specifically bind with the rIFNα present immobilized in the solid phase on the walls of the wells. The wells were then washed with PBST to remove unbound CR2. […] The formation of p-nitrophenol was determined by measuring optical absorbance at 405 nm in a Titertek ELISA reader (Titertek Multiskan MCC/340, Metea, Va.).

[1] = target: T2, native CR2 present on Raji cells (Homo sapiens, UniProt P20023); assay: Inhibition of Zymosan-C3 rosette formation in Raji cells; format: cell-based; conditions: 10^5 Raji cells; zero to 200 μg tested, amount for the value not stated
T2 construct: native CR2 present on Raji cells; endogenous in cells; host or cells: Raji cells
T2 sequence (P20023 21-1033): T1 sequence (P20023 21-1033)
Description: Fresh blood was collected from a healthy donor, maintained at room temperature for 2 hours, centrifuged at 2000×g for about 10 min and the resulting supernatant collected. Five mg of Zymosan A particles (Sigma Chemical Co., St. Louis, Mo.) were boiled for 30 min in 20 ml of 150 mM NaCl and washed three times in phosphate-buffered saline (PBS) to form activated particles. One mg of activated particles was admixed with 0.5 ml of the collected blood supernatant, the admixture was maintained at 37° C. for 30 minutes, and then the particles were washed 3 times in PBS. The washed particles were re-suspended in PBS at a concentration of 0.5 mg/ml to form a C3-coated Zymosan composition.
Cultures containing 10^5 Raji cells were admixed with 100 microliters (μl ) of culture medium containing varying amounts (zero to 200 μg) of C3 or IFNαA derived polypeptides (p7 and p2 prepared in Example 1) or rIFNα prepared in Example 3b and the admixture maintained at 37° C. for 30 minutes to allow the CR2 ligand polypeptides to bind any CR2 receptor present on the Raji cells. Thereafter, 50 μl of the C3-coated Zymosan composition were added to each cell culture. […] More than 3 rosettes per cell were counted as C3 specific binding. Inhibition is expressed as the percent decrease in bound rosettes when comparing binding in the presence or absence of admixed polypeptide.

Substance | inhibition at 100 µg/mL (CR2) [%] | Binding to solid-phase rIFNα (in words) (rIFNα) | Percent Inhibition of Zymosan-C3 Rosette Formation in Raji Cells [1] [%]
QLNNLEACV [p4, QLNNLEACV] | 45 |  | 
bovine serum albumin [BSA] |  | no dose dependent binding | 
QLYNVEATS [p7, QLYNVEATS] | 50 |  | 77
QLNDMEACV [p6, QLNDMEACV] | 0 |  | 
QLNDLEACV [p2, QLNDLEACV] | 48 |  | 55
SPGRGD [p10, SPGRGD] | 0 |  | 
